Experimental findings from patent publication US20050037975A1, “Method for treatment of glutamate related disorders” (priority 1997, published 2005) are described below.

Marks after values point to notes of the source that are not given here.

Experiment [1] concerns the target T1, rat liver mitochondrial low Km ALDH (Rattus norvegicus, UniProt P11884).
T1 construct: differential centrifugation carried out to isolate the mitochondrial faction; from tissue; host or cells: liver mitochondria of male Sprague-Dawley derived rats
T1 sequence (P11884 20-519): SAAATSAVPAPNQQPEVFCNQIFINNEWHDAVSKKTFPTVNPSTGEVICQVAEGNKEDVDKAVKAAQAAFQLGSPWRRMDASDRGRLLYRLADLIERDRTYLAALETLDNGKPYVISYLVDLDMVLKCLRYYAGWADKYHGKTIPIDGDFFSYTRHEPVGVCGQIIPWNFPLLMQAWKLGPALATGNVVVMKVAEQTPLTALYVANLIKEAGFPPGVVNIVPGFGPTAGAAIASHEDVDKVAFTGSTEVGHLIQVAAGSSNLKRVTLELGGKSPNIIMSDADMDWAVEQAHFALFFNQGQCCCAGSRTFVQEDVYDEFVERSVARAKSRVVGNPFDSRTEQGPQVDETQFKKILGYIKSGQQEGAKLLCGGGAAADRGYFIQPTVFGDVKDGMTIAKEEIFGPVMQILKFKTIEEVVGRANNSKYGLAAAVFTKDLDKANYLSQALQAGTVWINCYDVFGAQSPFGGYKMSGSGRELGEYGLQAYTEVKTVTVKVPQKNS
As to the kind of experiment: Liver aldehyde dehydrogenase determined in vivo. Particulars: intraperitoneal (IP), liver taken eight hours later. On the procedure: To determine if a compound of formula (I) can inhibit aldehyde dehydrogenase activity in vivo, doses of DETC-Me SO (1.3 mg/kg, 2.6 mg/kg, 5.2 mg/kg, 10.3 mg/kg and 20.6 mg/kg), were administered to male Sprague Dawley derived rats weighing 200-400 g. The rats were bred from a resident colony maintained in the Animal Care Unit at the University of Kansas. Rats were maintained on a 12-hour lights cycle with access to food and water ad lib until the night before an experiment, at which time food was removed. Animals were fasted for 12 hours prior to drug administration.
All experiments were carried out in the morning. Rats were treated with the doses of DETC-Me SO or DETC-Me described above, which were dissolved in polyethylene glycol 200. Eight hours later, the rats were anesthetized with carbon-dioxide and then decapitated. The liver was quickly removed and the low Km aldehyde dehydrogenase determined. Control rats were treated with […] vehicle only, and each control data point also represents an average of four rats.
The liver from drug-treated and control rats was homogenized in 0.25 M sucrose and differential centrifugation was carried out to isolate the mitochondrial fraction. The mitochondria were solubilized with sodium deoxycholate, and mitochondrial low Km and total (high and low) aldehyde dehydrogenase activity determined by the method of S. O. C. Tottmar et al., cited above.

Experiment [2] can be described thus: Plasma acetaldehyde determination after ethanol challenge. Format: in vivo, rat. To be noted: 10.3 mg/kg IP in polyethylene glycol 200, ethanol challenge 1 g/kg IP. Here is the method: Rats maintained as described in Ex. 4, fasted for 18 hours, were given 10.3 mg/kg of the DETC-Me SO intraperitoneally, dissolved in polyethylene glycol 200 and then challenged eight hours later with a dose of ethanol (1 g/kg; 20% v/v) also administered intraperitoneally. The rats were anesthetized with phenobarbital 30 minutes after alcohol administration and blood was taken by aortic puncture, being drawn into a heparinized syringe. Plasma acetaldehyde was determined by the method of C. O. P. Eriksson et al., Anal. Biochem., 80, 116 (1977). Plasma concentrations were determined based on a standard curve obtained with known concentrations of acetaldehyde. Control rats were treated with 1 ml/kg of polyethylene glycol 200.

Another experiment has as its system ALDH2. Nature of the experiment: In vitro inactivation of aldehyde dehydrogenase. Format: biochemical. Here is the method: (§1) To test whether the protective effect of DETC-MeSO in hyperbaric O2-induced convulsions in mice could be due to inhibition of succinic semi-aldehyde dehydrogenase (SSA DH), mechanistically related to ALDH2, the sensitivity of SSA DH to inactivation by DETC-MeSO was determined. Potentially, inhibition of SSA DH in brain could offset the build up of ammonia known to occur and produce more GABA. In vitro both ALDH2 and SSA DH are inactivated by DETC-MeSO at 47 M-1 s-1 and 300 M-1 s-1, respectively.

Experiment [3] relates to succinic semi-aldehyde dehydrogenase (SSA DH). As to the kind of experiment: In vitro inactivation of succinic semi-aldehyde dehydrogenase. Format: biochemical. Here is the method: as §1
For experiment [4], the system named is MetSOX-induced seizures. As to the kind of experiment: MetSOX-induced seizures in mice. Format: in vivo. On the procedure: (§2) Animals—Male Swiss Webster mice (20-30 g) or male Sprague-Dawley rats (250-300 g) were used. All that employed animals were conducted in strict compliance with the NIH guidelines on animal use and institutional regulations concerning animal experimentation. Animals were exposed to hyperbaric oxygen in a specify designed press chamber as previously described (M. D. Faiman et al., Biochem. Pharmacol., 20, 3049-3067 (1971); M. D. Faiman et al. Aerosp. Med.,45, 29032.(1974)). The time to first clonic-tonic seizure after brining animals to a final pressure of five atmospheres of 100% oxygen or after intraperitoneal injection of convulsants was noted by. criteria outlined previously (M. D. Faiman et al. (1971), supra M. D. Faiman et al. (1974), supra). Unless otherwise specified, the ability of DETC-MeSO to prevent seizures was tested by intraperitoneal injection of 5.2 mg/kg of DETC-MeSO 1-2 hours prior to bringing the animal to a final pressure of 5 atmospheres of 100% oxygen or intraperitoneal injection of N-methyl-D-asparate (NMA) (125 mg/kg) r L-methionine sulfoximine (MetSOX) (250 mg/kg). Evaluation of the statistics for whole animal experiments or for changes in brain glutamate binding after administration of DETC-MeSO was conducted by use of the program GraphPAD InStat from Graph PAD Software (San Diego, Calif.).

The subject of experiment [5] is MetSOX-induced seizures. As to the kind of experiment: MetSOX-induced seizures in rats. Format: in vivo. Here is the method:
as §2

[6] abbreviates: MetSOX 250 mg/kg, 5.2 mg/kg i.p. 1-2 hours prior, ± standard error.

With `CCN(CC)C(=O)[S+](C)[O-]` (stereo not drawn) [DETC-MeSO, S-Methyl-N,N-Diethylthiolcarbamate Sulfoxide], the “dose required to inhibit 50% of the low Km ALDH” value in experiment [1] was found to be 3.6 mg/kg. The plasma acetaldehyde entry in experiment [2] is “approximately 900 μM”. In addition, the “inactivation rate of ALDH2” value in the experiment with ALDH2 (in vitro) stood at 47 M⁻¹ s⁻¹. Moreover, in the experiment on ALDH2 (under physiological conditions), the “rate for enzyme (ALDH) inactivation” value was found to be 40 M⁻¹ s⁻¹. Moreover, the “inactivation rate of SSA DH” value in experiment [3] came to 300 M⁻¹ s⁻¹. Moreover, the “effect on time free of MetSOX seizures” value in the experiment on MetSOX-induced seizures [4] and with MetSOX-induced seizures [5] was “more than doubled” throughout. For the same compound, the “mean time to seizure” value in the experiment with MetSOX-induced seizures [4] (setting [6]) was 307 ± 60 min; in the experiment with MetSOX-induced seizures [5] (setting [6]), 318 ± 60 min. Moreover, the “number of animals that exhibited the effect/total number of animals in the group” value is “(6/8)^a” in the experiment with MetSOX-induced seizures [4] (MetSOX 250 mg/kg, observation six hours) and “(4/4)” in the experiment on MetSOX-induced seizures [5] (MetSOX 250 mg/kg).
